Results as given in US10059655B2, “Lipids and lipid compositions for the delivery of active agents” (priority 2013, dated 2018).

Assays:
Type in all cases: physicochemical
[1] = Polydispersity index (PDI) by dynamic light scattering; settings: for PDI 1st IM / PDI 2nd IM: RSV-F replicon RNA LNP, DLS; for PDI 1st IM: 1st immunization; for PDI 2nd IM: 2nd immunization
Method: Unless indicated otherwise, all PDIs referred to herein are the PDI of the fully formed nanoparticle, as measured by dynamic light scattering on a Malvern Zetasizer. The nanoparticle sample was diluted in phosphate buffered saline (PBS) so that the count rate was approximately 200-400 kcts. The data is presented in Table 3 as a weighted average of the intensity measure.
% entrapment (% E), Concentration of RNA (Conc), particle size measured by DLS, and polydispersity reported by DLS of LNPs prepared with different cationic lipids

[2] = Measurement of mRNA encapsulation in lipid nanoparticles (Quant-iT Ribogreen); settings: for % encapsulation mRNA Leptin: Leptin mRNA in LNP
How it was run: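 LNPs were formed by T-junction mixing of ethanolic lipids (cationic lipid:DSPC:cholesterol:PEG lipid 40:10:38:2) with mRNA in citrate pH 5.8–6.0 at N:P 4:1, then dialysed against PBS overnight at 4 °C. RiboGreen fluorescence (ex 480/em 520 nm) was read on samples diluted 400–2,000-fold in TE with or without 0.75% Triton X-100 and quantified against standard curves. Encapsulation % = (Triton − buffer concentration)/Triton concentration.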

[3] = Measurement of plasmid DNA encapsulation in lipid nanoparticles (Quant-iT Ribogreen)
Method: All equipment and disposable supplies are certified free of RNase activity by the manufacturer or rendered RNase free by use of the RNaseZap reagent (LifeTechnologies). Plasmid is encapsulated at a cationic lipid amine to DNA phosphate (N:P) molar ratio of 4:1. Lipids (cationic lipid, DSPC, cholesterol and lipidated PEG) are dissolved in ethanol. The molar ratios are 40:10:38:2, respectively. The mixture is sonicated briefly, then gently agitated for 5 minutes and then maintained at 37° C. until use. Plasmid is exchanged into citrate buffer pH 6.0 by use of Amicon Ultra-15 centrifugal concentrators, and the final concentration is adjusted to 0.053 mg/ml and held at 37° C. until use. An equal volume of lipids in ethanol, plasmid in citrate buffer, and citrate buffer alone are drawn into disposable syringes. Tubing leading from syringes containing lipids and DNA are attached to the T junction, and tubing leading from the syringe containing citrate buffer alone is paired with the tubing exiting the T-junction over a collection vessel containing a stir bar on an active stir plate. Syringes are placed in a syringe pump set to expel contents at a flow rate of 1 ml per minute. The pump is activated, and the collected DNA in lipid nanoparticles is transferred to SnakeSkin dialysis tubing (10,000 MWCO, Thermo Scientific). Material is dialyzed against RNAse- and pyrogen-free 1× phosphate buffered saline overnight at 4° C.
Percent encapsulation of plasmid DNA in lipid nanoparticles is determined using the Quant-iT Ribogreen RNA Assay kit (Life Technologies). The LNP-DNA suspension is assayed in buffer (DNA outside the particle), and buffer plus Triton X-100 detergent (total DNA). The difference calculated is the DNA inside the particle. Prepare a 1000 ng/mL stock using unpackaged plasmid and use this to generate a standard curve (0 ng/ml, 15.63-1000 ng/ml) in TE and TE+0.75% Triton X-100. Prepare LNP-plasmid samples in TE buffer and TE buffer+0.75% Triton X-100 with appropriate dilution so that reading is in the range of standard curve (25 fold). In a 384-well plate (Costar non-treated #3573) add 0.04 ml of standard (in duplicate) or sample (in triplicate) per well. Dilute Ribogreen reagent 240-fold in TE buffer and add 0.06 ml per well. Mix contents of wells and measure fluorescence (excitation=480 nm, emission=520 nm). Subtract background values (no DNA) from standard and test sample values and determine the concentrations of DNA in the samples using the standard curves. Determine the percent encapsulation of the sample by dividing the difference in concentrations between sample+triton and sample in buffer alone by the sample+triton concentration.

Structure (SMILES): CCCCC/C=C\C/C=C\CCCCCCCC(=O)OCC(COC(=O)CCCCCCC/C=C\C/C=C\CCCCC)COC(=O)C1(C)CCN(C)C1 (stereo not drawn) [Example 1, (9Z,9′Z,12Z,12′Z)-2-(((1,3-dimethylpyrrolidine-3-carbonyl)oxy)methyl)propane-1,3-diyl bis(octadeca-9,12-dienoate)]
- PDI ([1]; FLuc mRNA): 0.152
- PDI ([1]; FVII siRNA): 0.049
- PDI ([1]; Gluc mRNA): 0.136
- PDI 1st IM [1]: 0.122
- PDI 2nd IM [1]: 0.11
- PDI ([1]; hFIX mRNA): 0.090
- PDI ([1]; hLep plasmid): 0.182
- PDI ([1]; hLeptin mRNA): 0.105
- PDI ([1]; mEPO mRNA): 0.145
- PDI ([1]; pDNA): 0.100
- % Encap. ([2]; FLuc mRNA): 86.8%
- % Encap. ([2]; Gluc mRNA): 92.3%
- % encapsulation mRNA Leptin [2]: 96.7%
- % Encap. ([2]; hFIX mRNA): 89.5%
- % Encap. ([2]; hLeptin mRNA): 96.7%
- % Encap. ([2]; mEPO mRNA): 94.7%
- % Encap. ([3]; hLep plasmid): 93.0%
- % Encap. ([3]; pDNA): 94.7%

Structure (SMILES): CCCCC/C=C\C/C=C\CCCCCCCC(=O)OCC(COC(=O)CCC(OCCCCCCCC)OCCCCCCCC)COC(=O)OCCCN(CC)CC (stereo not drawn) [Example 13, (9Z,12Z)-3-((4,4-bis(octyloxy)butanoyl)oxy)-2-((((3-(diethylamino)propoxy)carbonyl)oxy)methyl)propyl octadeca-9,12-dienoate]
- PDI ([1]; FLuc mRNA): 0.140
- PDI ([1]; FVII siRNA): 0.037
- PDI ([1]; Gluc mRNA): 0.099
- PDI ([1]; hFIX mRNA): 0.154
- PDI ([1]; hLep plasmid): 0.158
- PDI ([1]; hLeptin mRNA): 0.093
- PDI ([1]; mEPO mRNA): 0.129
- PDI ([1]; pDNA): 0.160
- % Encap. ([2]; FLuc mRNA): 98.3%
- % Encap. ([2]; Gluc mRNA): 97.2%
- % encapsulation mRNA Leptin [2]: 90.7%
- % Encap. ([2]; hFIX mRNA): 96.4%
- % Encap. ([2]; hLeptin mRNA): 95.4%
- % Encap. ([2]; mEPO mRNA): 98.5%
- % Encap. ([3]; hLep plasmid): 95.9%
- % Encap. ([3]; pDNA): 98.2%

Structure (SMILES): CCCCC/C=C\C/C=C\CCCCCCCC(=O)OCC(COC(=O)CCC(OCCCCCCCC)OCCCCCCCC)COC(=O)OCC1CCCN(CC)C1 (stereo not drawn) [Example 15, (9Z,12Z)-3-((4,4-bis(octyloxy)butanoyl)oxy)-2-(((((1-ethylpiperidin-3-yl)methoxy)carbonyl)oxy)methyl)propyl octadeca-9,12-dienoate]
- PDI ([1]; FLuc mRNA): 0.132
- PDI ([1]; Gluc mRNA): 0.133
- PDI 1st IM [1]: 0.121
- PDI 2nd IM [1]: 0.097
- PDI ([1]; hFIX mRNA): 0.182
- PDI ([1]; hLep plasmid): 0.149
- PDI ([1]; hLeptin mRNA): 0.125
- PDI ([1]; mEPO mRNA): 0.125
- PDI ([1]; pDNA): 0.110
- % Encap. ([2]; FLuc mRNA): 98.1%
- % Encap. ([2]; Gluc mRNA): 98.1%
- % encapsulation mRNA Leptin [2]: 97.3%
- % Encap. ([2]; hFIX mRNA): 98.4%
- % Encap. ([2]; hLeptin mRNA): 97.3%
- % Encap. ([2]; mEPO mRNA): 98.3%
- % Encap. ([3]; hLep plasmid): 93.6%
- % Encap. ([3]; pDNA): 93.2%
